In patent US6838477B2, “Lactacystin analogs” (President and Fellows of Harvard College, priority 1995, dated 2005):
“Also recorded” adds a separate entry of the source. Peptide text beside a SMILES is read from it. * marks the point of attachment. Cbz = O=C(OCc1ccccc1)*

Columns and labels:
[1] = biological target: T1, 20S proteasome chymotrypsin-like activity (Bos taurus, UniProt Q32KL2); assay: Kinetics of inhibition of 20S proteasome chymotrypsin-like activity (Suc-LLVY-AMC); assay type: biochemical, bovine; conditions: for κassoc = κobs/[I], Chymotrypsin-like activity (Suc-LLVY-AMC): 25° C.
T1 construct: from tissue; host or cells: bovine brain
Experimental: (§1) Experiments involving the proteasome were performed as follows: 20S proteasome (˜5 ng/μl) in 10 mM Tris-HCl, pH 7.5, 1 mM EDTA was incubated at 25° C. in the presence of lactacystin or lactacystin analogs in DMSO or MeOH [not exceeding 5% (v/v)]. Aliquots for fluorescence assay were removed at various times following addition of compound and diluted in 10 mM Tris-HCl, pH 7.5, 1 mM EDTA containing fluorogenic peptide substrates (100 μM final). Suc-LLVY-AMC, Cbz-GGR-βNA and […] (AMC=7-amido-4-methylcoumarin; βNA=β-naphthylamide) were used to assay for the chymotrypsin-like, trypsin-like and peptidylglutamyl-peptide hydrolyzing activities, respectively.
(§2) Fluorescent emission at 460 nm with excitation at 380 nm was measured for AMC-containing substrates, and emission at 410 nm with excitation at 335 nm was measured for βNA-containing substrates. The fluorescence assays were conducted at 25° C., each experiment was performed at least three times, and values represent mean±standard deviation.
(§3) The reversibility of the inhibitory effects was assessed by measuring residual peptidase activity after removal of excess inhibitor by extensive serial dilution/ultrafiltration.

PC12 cells = conditions: Tsubuki et al. 1993; cited from earlier work
IκB-α = assay: TNF-α dependent degradation of IκB-α in Hela cells (immunoblot); assay type: cell-based, human; conditions: 40 μM, 1 h pretreatment, 1,000 U/ml TNF-α
Experimental: Hela cells were plated onto 6-well plates in DME plus 10% fetal calf serum (3 mls/well). Cells were then pretreated with 0.125% DMSO 40 μM […] (carbobenzoxyl-leucinyl-leucinyl-leucinal-H)(40 μM, lanes 103), or 5 μM β-lactone for one hour, followed by treatment with 1,000 U/ml TNF-α or phosphate buffered saline (PBS). Cells were harvested after 0 min, 20 min, or 40 min of further incubation at 37° C. Cells were then lysed in buffer containing NP-40 and protease inhibitors, and the proteins separated on a 10% SDS-polyacrylamide gel. The proteins were then transferred to nitrocellulose and probed with antibodies against the C-terminal 20 amino acids of human IκB-α.

p105 to p50 processing = assay: Proteasome dependent p105 to p50 processing in transfected COS cells (pulse-chase); assay type: cell-based, African green monkey; conditions: 50 μM, 1 h pretreatment, 2 hour chase
Experimental: COS cells were plated onto 100 mm dishes, then, with DEAE-Destran, either mock transfected, or transfected with 3 μg of pcDNA plasmid containing the human p105 cDNA. Forty-eight hrs after transfection, cells were pretreated for 1 hour with 0.5% DMSO, 50 μM calpain inhibitor II, 50 μM MG132, or 10 μM β-lactone. Cells were then pulse labelled with 250 uCi/plate of ^35S-methionine/cysteine for 15 minutes, and either harvested immediately or followed by a 2 hour chase with excess unlabelled methionine and cysteine. Cells were then lysed with SDS/Tris, and proteins were immunoprecipitated with anti-p50 antibodies (recognize the N-terminal half of the p105 protein). These proteins were then separated on a 10% SDS-polyacrylamide gel, which was then fixed, dried, and exposed to autoradiographic film.

Calpain I = biological target: T2, Calpain I (Homo sapiens, UniProt P07384); assay: Selectivity of protease inhibition: calpain I; assay type: biochemical
T2 sequence (P07384 1-714): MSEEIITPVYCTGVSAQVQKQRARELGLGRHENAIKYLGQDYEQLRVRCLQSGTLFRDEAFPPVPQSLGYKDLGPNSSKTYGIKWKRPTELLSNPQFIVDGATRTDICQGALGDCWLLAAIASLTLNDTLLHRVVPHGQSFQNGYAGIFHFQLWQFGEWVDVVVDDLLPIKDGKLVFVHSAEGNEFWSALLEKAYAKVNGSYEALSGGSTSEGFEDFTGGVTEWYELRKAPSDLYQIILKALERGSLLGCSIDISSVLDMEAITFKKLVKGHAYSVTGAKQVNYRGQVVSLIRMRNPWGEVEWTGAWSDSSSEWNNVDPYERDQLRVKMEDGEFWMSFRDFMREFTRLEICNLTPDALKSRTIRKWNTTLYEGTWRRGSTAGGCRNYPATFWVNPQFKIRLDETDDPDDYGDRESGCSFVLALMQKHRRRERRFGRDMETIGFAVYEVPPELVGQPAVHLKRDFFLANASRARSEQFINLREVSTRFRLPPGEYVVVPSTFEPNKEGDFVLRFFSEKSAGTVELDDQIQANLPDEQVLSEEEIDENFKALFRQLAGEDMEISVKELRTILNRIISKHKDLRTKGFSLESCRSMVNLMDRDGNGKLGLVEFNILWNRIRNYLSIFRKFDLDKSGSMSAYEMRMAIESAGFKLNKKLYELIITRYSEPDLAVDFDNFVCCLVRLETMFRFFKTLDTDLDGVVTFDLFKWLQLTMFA
T2 sequence (P04632 1-268 partner): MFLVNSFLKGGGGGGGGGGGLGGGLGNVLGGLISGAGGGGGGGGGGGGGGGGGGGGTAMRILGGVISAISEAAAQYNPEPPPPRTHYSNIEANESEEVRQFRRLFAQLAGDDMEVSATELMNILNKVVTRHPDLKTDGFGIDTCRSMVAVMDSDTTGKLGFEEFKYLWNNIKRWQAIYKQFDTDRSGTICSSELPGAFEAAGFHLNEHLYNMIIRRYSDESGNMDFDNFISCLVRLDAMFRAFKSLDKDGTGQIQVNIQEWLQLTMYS

Cathepsin B = Cathepsin B (Homo sapiens, UniProt P07858); assay: Selectivity of protease inhibition: cathepsin B; assay type: biochemical
Papain = biological target: T3, Papain (Carica papaya, UniProt P00784); assay: Selectivity of protease inhibition: papain; assay type: biochemical
T3 sequence (P00784 134-345): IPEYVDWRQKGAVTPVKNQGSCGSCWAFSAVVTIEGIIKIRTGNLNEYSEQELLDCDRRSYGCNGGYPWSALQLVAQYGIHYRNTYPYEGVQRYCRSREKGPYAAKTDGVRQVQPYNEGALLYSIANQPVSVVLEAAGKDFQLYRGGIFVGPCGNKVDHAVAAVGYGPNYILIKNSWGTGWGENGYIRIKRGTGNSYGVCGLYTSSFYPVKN

Calpain II = biological target: T4, Calpain II (Homo sapiens, UniProt P17655); assay: Selectivity of protease inhibition: calpain II; assay type: biochemical
T4 sequence (P17655 1-700): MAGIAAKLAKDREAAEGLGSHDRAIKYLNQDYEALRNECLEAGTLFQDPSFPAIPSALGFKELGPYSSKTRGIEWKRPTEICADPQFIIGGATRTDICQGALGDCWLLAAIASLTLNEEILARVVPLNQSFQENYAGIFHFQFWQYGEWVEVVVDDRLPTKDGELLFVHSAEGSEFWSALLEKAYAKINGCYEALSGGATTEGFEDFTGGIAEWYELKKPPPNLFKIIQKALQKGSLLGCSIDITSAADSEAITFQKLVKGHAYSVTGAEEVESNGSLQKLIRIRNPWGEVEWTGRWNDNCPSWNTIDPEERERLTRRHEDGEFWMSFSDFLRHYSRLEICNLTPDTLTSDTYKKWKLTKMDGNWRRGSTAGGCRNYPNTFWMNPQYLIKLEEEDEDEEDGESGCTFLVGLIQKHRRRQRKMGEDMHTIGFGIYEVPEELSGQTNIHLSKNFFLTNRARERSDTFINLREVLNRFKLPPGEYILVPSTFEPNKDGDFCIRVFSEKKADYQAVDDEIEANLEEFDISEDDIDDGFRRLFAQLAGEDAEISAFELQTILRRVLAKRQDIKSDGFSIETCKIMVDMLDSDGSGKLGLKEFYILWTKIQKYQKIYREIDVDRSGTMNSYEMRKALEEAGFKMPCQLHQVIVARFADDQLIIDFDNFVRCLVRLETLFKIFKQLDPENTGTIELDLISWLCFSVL
T4 sequence (P04632 1-268 partner): T2 sequence (P04632 1-268 partner)

[2] = biological target: 20S proteasome peptidylglutamyl-peptide hydrolyzing activity (Bos taurus, UniProt Q3MHN0)
Experimental: as §1, §2, §3

[3] = biological target: T5, 20S proteasome trypsin-like activity (Bos taurus, UniProt Q2TBP0); assay: Kinetics of inhibition of 20S proteasome trypsin-like activity (Cbz-GGR-βNA); assay type: biochemical, bovine
T5 construct: from tissue; host or cells: bovine brain
Experimental: as §1, §2, §3

Trypsin = biological target: T6, Trypsin (Bos taurus, UniProt P00760); assay: Selectivity of protease inhibition: trypsin; assay type: biochemical
T6 construct: gene PRSS1
T6 sequence (P00760 24-246): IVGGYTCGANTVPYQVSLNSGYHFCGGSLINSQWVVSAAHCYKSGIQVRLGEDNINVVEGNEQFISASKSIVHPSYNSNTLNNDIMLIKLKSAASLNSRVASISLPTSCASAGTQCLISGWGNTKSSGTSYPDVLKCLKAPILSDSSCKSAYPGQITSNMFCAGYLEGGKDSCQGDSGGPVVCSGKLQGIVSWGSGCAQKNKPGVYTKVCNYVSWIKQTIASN

α-Chymotrypsin = α-Chymotrypsin (Bos taurus, UniProt P00766, DEL14-15/DEL147-148); assay: Selectivity of protease inhibition: α-chymotrypsin; assay type: biochemical
20S proteasome = biological target: T7, 20S proteasome (Bos taurus, UniProt Q2TBP0+Q32KL2); assay: Labeling of 20S proteasome subunits by tritiated compound, reverse-phase HPLC separation; assay type: binding, bovine
T7 construct: from tissue; host or cells: bovine brain
Experimental: This peak was isolated and treated with 10 μM [^3H]lactacystin or 10 μM [^3H]β-lactone for 24 h at 25° C. Trifluoroacetic acid (TFA) was added to 0.1%, and the sample was allowed to stand at room temperature for 20 min. Reverse-phase HPLC was then carried out at room temperature using a Vydac C4 column (300 Å/4.6×150 mm) with 20-40% acetonitrile/0.1% TFA over 10 min and then 40-55% acetonitrile/0.1% TFA over 30 min (flow rate=0.8 ml/min). An IN/US β-RAM in-line scintillation detector was used to monitor radioactivity.

[4] = residual activity after removal of excess inhibitor by serial dilution/ultrafiltration
[5] = relative to kassoc for chymotrypsin-like activity

Compound: CC(=O)NC(CSC(=O)C1(C(O)C(C)C)NC(=O)C(C)C1O)C(=O)O [(6R,7S)Lactacystin (6-epi,7-epi), (6R,7S)-lactacystin]
- κassoc = κobs/[I], Chymotrypsin-like activity (Suc-LLVY-AMC) ([1]; compound 12.5 μM): No inhibition

Compound: CC(C)C[C@@H](C=O)NC(=O)[C@H](CC(C)C)NC(=O)[C@H](CC(C)C)NC(=O)OCc1ccccc1 [MG132, carbobenzoxyl-leucinyl-leucinyl-leucinal-H] (Cbz-Leu-Leu-Leu-aldehyde)
- optimal concentration for inducing neurite outgrowth (PC12 cells): 30 nM
- degradation of IκB after TNF induction (IκB-α): blocks the degradation
- phosphorylated form of IκB (IκB-α): stabilizes the phosphorylated form
- processing of p105 to p50 (appearance of p50) (p105 to p50 processing): completely blocks the appearance of p50

Compound: CSCC[C@@H](C=O)NC(=O)[C@H](CC(C)C)NC(=O)[C@H](CC(C)C)NC(C)=O [calpain inhibitor II] (Ac-Leu-Leu-Met-aldehyde)
- processing of p105 to p50 (appearance of p50) (p105 to p50 processing): no effect

Compound: CC(=O)N[C@@H](CSC(=O)[C@]1([C@@H](O)C(C)C)NC(=O)[C@H](C)[C@@H]1O)C(=O)O [Lactacystin, lactacystin]
- κassoc = κobs/[I], Chymotrypsin-like activity (Suc-LLVY-AMC) ([1]; compound 10 μM): 194 ± 15 s^−1M^−1
- kinact/KI ([1]; read-out: kassoc, apparent second-order rate constant for association, chymotrypsin-like activity): 194 ± 15 M⁻¹ s⁻¹
- reversibility of inhibition of chymotrypsin-like activity [1, 4]: irreversibly; also recorded: still completely inhibited
- Effect of lactacystin (100 μM) on Calpain I (Calpain I; 100 μM, Suc-LLVY-AMC, 25° C.): No inhibition
- inhibition of calpain I activity (Calpain I; concentration not given): do not inhibit
- Effect of lactacystin (100 μM) on Cathepsin B (Cathepsin B; 100 μM, Cbz-RR-AMC, 25° C.): No inhibition
- inhibition of cathepsin activity (Cathepsin B; concentration not given): do not inhibit
- Effect of lactacystin (100 μM) on Papain (Papain; 100 μM, Cbz-RR-AMC, 25° C.): No inhibition
- inhibition of papain activity (Papain; concentration not given): do not inhibit
- Effect of lactacystin (100 μM) on Calpain II (Calpain II; 100 μM, Suc-LLVY-AMC, 25° C.): No inhibition
- inhibition of calpain II activity (Calpain II; concentration not given): do not inhibit
- κassoc = κobs/[I], Peptidylglutamyl-peptide hydrolyzing activity (Cbz-LLE-βNA) ([2]; compound 100 μM, 25° C.): 4.2 ± 0.6 s^−1M^−1
- PGPH activity inhibited more slowly than chymotrypsin-like activity [2, 5]: 50 fold
- reversibility of inhibition of PGPH activity [2, 4]: reversibly; also recorded: return of the catalytic activity
- κassoc = κobs/[I], Trypsin-like activity (Cbz-GGR-βNA) ([3]; compound 10 μM, 25° C.): 10.1 ± 1.8 s^−1M^−1
- trypsin-like activity inhibited more slowly than chymotrypsin-like activity [3, 5]: 20 fold
- reversibility of inhibition of trypsin-like activity [3, 4]: irreversibly; also recorded: still completely inhibited
- Effect of lactacystin (100 μM) on Trypsin (Trypsin; 100 μM, Cbz-GGR-βNA, 25° C.): No inhibition
- inhibition of trypsin activity (Trypsin; concentration not given): do not inhibit
- Effect of lactacystin (100 μM) on α-Chymotrypsin (α-Chymotrypsin; 100 μM, Suc-LLVY-AMC, 25° C.): No inhibition
- inhibition of α-chymotrypsin activity (α-Chymotrypsin; concentration not given): do not inhibit

Compound: 6-deoxylactacystin
- κassoc = κobs/[I], Chymotrypsin-like activity (Suc-LLVY-AMC) ([1]; compound 12.5 μM): No inhibition

Compound: CC(=O)N[C@@H](CSC(=O)[C@]1([C@@H](O)C(C)C)NC(=O)[C@H](C)[C@@H]1O)C(=O)O [[^3H]lactacystin]
- association of radioactivity with HPLC-separated proteasome subunit peaks (20S proteasome; 10 μM, 24 h at 25° C., first peak ~32 kDa (α chain), second peak ~24 kDa (X/MB1)): exclusively with the first two peaks
- labeling of the first peak (~32 kDa protein) (20S proteasome; 24 hour reaction): significant labeling
